Article PMC3409241, “Probing Cocaine-Antibody Interactions in Buffer and Human Serum” (PLoS ONE, 2012)
“Also recorded” adds a separate entry of the source. Where a name gives a salt, the structure may show the parent alone. Read-outs that look alike come from different tables or passages of the source.

How the values were obtained:
cAMP kinase = test system: cAMP kinase; set-up: method as in PMID 20981028; conditions: in presence of 30% human serum; cited from earlier work
f-mAb08 = experiment: MST of fluorescently labeled f-mAb08 binding to drugs; set-up: species or system mouse; conditions: 25°C
Experimental: The fluorescent labeling was performed with a reactive RED dye (NT-647) following the manufacturer’s protocol (Nanotemper, Germany). […] Free dye was removed by purification on a Sephadex G-25 column provided with the kit. MST assays were carried out as described in Jerabek-Willesmsen et al.. Serial dilutions of unlabeled drug or antibody samples were mixed with 20 nM of NT-647-labeled proteins in PBS buffer (25 mM phosphate pH 7.4, 150 mM NaCl, 0.05% Tween-20) and incubated for 20 minutes. About 10 µl of sample was loaded into standard monolith NT capillaries provided by the manufacturer and assays were performed in a Nanotemper Monolith NT.015T. The Red fluorescence was exited using a light-emitting diode, and its emission was recorded at a focused location of capillary. Using another infrared laser diode a microscopic temperature gradient was created at the same location and the fluorescence depletion was measured. By plotting the concentrations of unlabeled binding partner with the changes in fluorescent thermophoresis signal, K D values were determined using the Nanotemper analysis software. The overlay diagram was made by normalizing the data to fraction bound.

mAb08 [1] = experiment: ITC titration of drug into mAb08; format: binding, mouse; conditions: 25°C
Experimental: (§1) ITC experiments were performed using an ITC-200 micro calorimeter from MicroCal (Northampton, MA, USA). Samples were dialyzed against PBS buffer and degassed prior to loading into the ITC cell. The drug samples were prepared in the same buffer to avoid buffer mismatch. Titrations were performed at 25°C by injecting consecutive aliquots (2 µl) of 45 µM drug into the ITC cell (volume of 200 µl) containing 3 µM antibody at 500 rpm stirring rate. Intervals between injections were set to be 150 sec in order to allow the heat from each injection to return to the baseline. Heats of dilution control experiments were performed by titrating ligand into buffer. The heats associated with the control titration were subtraced from the raw binding data prior to fitting. The data were fitted assuming that the antibody binding sites are identical using a single set binding model included in the Origin 7.0 software provided by the manufacturer. ITC directly measures the change in heat associated with two components going from the free to the bound state. Thus the observed molar change in enthalpy (ΔHobs) can be determined.
The binding isotherms, which is the incremental heat release as a function of complex formation is shown in the lower panel of Fig. 3. The solid line corresponds to the fit to a binding model to yield the equilibrium binding constant, K D, and the binding parameters, n and ΔH obs. The results of data analysis are shown in Table 1 along with the derived parameters, ΔGcal and ΔScal.
(§2) The thermodynamic parameters associated with the binding of cocaine to human serum and human serum albumin were investigated using ITC. We titrated 45 µM of cocaine to 20% of control human serum (no anti-cocaine antibodies) dialyzed against PBS (Figure 4A).

[2] = cited from earlier work
[3] = biological target: enriched polyclonal antibodies purified from mouse or patient serum; experiment: SPR competitive inhibition of enriched polyclonal antibody binding to immobilized BSA-SNC
Experimental: (§3) Data was collected using a medium collection rate at 25°C. The instrument was primed a few times using the running buffer before injecting the concentration series. For every binding cycle, the antibody samples were injected for 1.5 minutes at 50 µl/min flow rate and dissociation was monitored for 5 minutes. The bound antibody was releasedwith two 15 µl injections of pH 1.5 glycine buffer. The kinetic constants of binding were obtained using a 1∶1 Langmuir binding model. The raw data sets were analyzed using BIAevaluation (version 3.2) provided by BIAcore Inc. (Uppsala, Sweden). After the subtraction of background responses from the control flow cells, the association and dissociation phases were globally fitted for all the sensorgrams simultaneously, omitting any noisy data at the beginning and end of the analyte injection.

20% human serum = experiment: ITC titration of cocaine into 20% control human serum; format: binding
Experimental: as §1, §2

nonspecific human IgG = experiment: ITC of cocaine in presence of nonspecific human IgG; format: binding; conditions: 7 µM non-specific human IgG with mAb08
Experimental: as §1, §2

human serum albumin = human serum albumin (Homo sapiens, UniProt P02768); experiment: ITC titration of cocaine into human serum albumin; format: binding; conditions: 5 µM HSA against 45 µM cocaine in PBS
Experimental: as §1, §2

mAb08 [4] = experiment: SPR competitive inhibition of mAb08 binding to immobilized BSA-SNC; set-up: species or system mouse; conditions: 50 nM mAb08 mixed with increasing drug concentrations
Clone 402 = experiment: ITC titration of cocaine into Clone 402 antibody; format: binding
Experimental: as §1

[5] = test system: RR6 enriched polyclonal antibodies; experiment: SPR competitive inhibition of RR6 enriched polyclonal antibody binding to immobilized BSA-SNC; set-up: species or system mouse
Experimental: as §3

[6] = 20 nM f-mAb08, 20% control human serum, read-out: K D ^2 (nM) (Serum%)
[7] = 20 nM f-mAb08, PBS (phosphate buffer), read-out: K D ^1 (nM) Enriched IgG

Chain of human serum albumin (P02768 25-609): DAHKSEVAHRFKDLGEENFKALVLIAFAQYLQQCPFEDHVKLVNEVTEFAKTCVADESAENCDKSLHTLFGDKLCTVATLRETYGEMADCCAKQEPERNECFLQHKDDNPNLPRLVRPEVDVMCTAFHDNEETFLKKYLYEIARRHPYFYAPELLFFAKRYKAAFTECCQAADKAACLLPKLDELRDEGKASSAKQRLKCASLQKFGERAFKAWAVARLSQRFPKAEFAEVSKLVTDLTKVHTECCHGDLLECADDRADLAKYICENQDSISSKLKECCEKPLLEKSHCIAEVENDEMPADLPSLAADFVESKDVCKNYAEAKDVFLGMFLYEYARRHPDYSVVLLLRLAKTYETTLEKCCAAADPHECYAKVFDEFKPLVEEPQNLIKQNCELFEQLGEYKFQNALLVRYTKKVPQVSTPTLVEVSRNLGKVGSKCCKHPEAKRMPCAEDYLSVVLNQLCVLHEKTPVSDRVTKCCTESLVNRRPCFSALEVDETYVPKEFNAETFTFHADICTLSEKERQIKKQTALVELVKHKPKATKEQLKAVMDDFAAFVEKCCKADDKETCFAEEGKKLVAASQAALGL

O=c1c(O)c(-c2ccc(O)c(O)c2)oc2cc(O)cc(O)c12 [quercetin]
fold decrease in affinity (cAMP kinase): 400 fold

COC(=O)[C@H]1[C@@H](OC(=O)c2ccccc2)C[C@@H]2CC[C@H]1N2C [Cocaine, Cocaine hydrochloride]
Kd (f-mAb08; [6]): 105 nM
Kd (f-mAb08; 20 nM f-mAb08, 50% control human serum, listed as cocaine, read-out: K D ^2 (nM) (Serum%)): ~100 nM
Kd (f-mAb08; 20 nM f-mAb08, 50% control human serum, read-out: K D ^2 (nM) (Serum%)): 128 nM
Kd (f-mAb08; [7]): 7.8 nM
Kd (mAb08 [1]; PBS pH 7.4, sample mAb08): 2.5 ± 6.8 nM
ΔGcal (mAb08 [1]; PBS pH 7.4, sample mAb08): -11.7 kcal/mol
ΔHobs (mAb08 [1]; PBS pH 7.4, sample mAb08): -28.08 ± 0.37 kcal/mol
ΔScal (mAb08 [1]; PBS pH 7.4, sample mAb08): −54.8 cal.mol^−1K^−1
Kd (mAb08 [1]; sample mAb08+7 µM hIgG): 4 ± 10.5 nM
ΔGcal (mAb08 [1]; sample mAb08+7 µM hIgG): -11.5 kcal/mol
ΔHobs (mAb08 [1]; sample mAb08+7 µM hIgG): -28.58 ± 0.35 kcal/mol
ΔScal (mAb08 [1]; sample mAb08+7 µM hIgG): −57.4 cal.mol^−1K^−1
ΔHobs (mAb08 [1]; sample mAb08+7 µM hIgG, listed as cocaine): -28 kcal/mol
Kd (mAb08 [1]; sample mAb08+20% Serum): 113 nM
ΔGcal (mAb08 [1]; sample mAb08+20% Serum): -9.5 kcal/mol
ΔHobs (mAb08 [1]; sample mAb08+20% Serum): -33.19 ± 0.61 kcal/mol
ΔScal (mAb08 [1]; sample mAb08+20% Serum): −79.5 cal.mol^−1K^−1
Kd (mAb08 [1]; sample mAb08+20% Serum, listed as cocaine): ~113 nM
elimination half-life ([2]; depends on route of administration): 1 to 1.5 h
IC50 [3]: 100 to 500 nM
Kd (20% human serum; 45 µM cocaine to 20% control human serum): ~2000 nM
Kd (20% human serum; 25°C, sample 20% Serum): 2000 nM
ΔGcal (20% human serum; 25°C, sample 20% Serum): -7.8 kcal/mol
ΔHobs (20% human serum; 25°C, sample 20% Serum): -21.82 ± 3.16 kcal/mol
ΔScal (20% human serum; 25°C, sample 20% Serum): −47.1 cal.mol^−1K^−1
binding to nonspecific human IgG (nonspecific human IgG): very little interaction; also recorded: absence of non-specific cocaine binding
binding to human serum albumin (human serum albumin): very little interaction; also recorded: no detectable binding; also recorded: does not bind strongly
IC50 (mAb08 [4]): ~100 nM
IC50 (mAb08 [4]; listed as cocaine): ~104 nM
ΔGcal (Clone 402; ITC, 25°C, sample Clone 402): -6.8 kcal/mol
ΔHobs (Clone 402; ITC, 25°C, sample Clone 402): -26.4 ± 1.93 kcal/mol
ΔScal (Clone 402; ITC, 25°C, sample Clone 402): −65.6 cal.mol^−1K^−1
Kd (Clone 402; ITC, 25°C, sample Clone 402, read-out: K D): 10000 nM
Kd (Clone 402; clone 402 (Arista Biologicals), read-out: affinity to cocaine): ~10000 nM

CN1[C@H]2CC[C@@H]1[C@@H](C(=O)O)[C@@H](OC(=O)c1ccccc1)C2 [Benzoylecgonine]
Kd (f-mAb08; [6]): 98 nM
Kd (f-mAb08; [7]): 23.7 nM
Kd (mAb08 [1]; PBS pH 7.4, sample mAb08): 18.6 ± 48.7 nM
ΔGcal (mAb08 [1]; PBS pH 7.4, sample mAb08): -10.5 kcal/mol
ΔHobs (mAb08 [1]; PBS pH 7.4, sample mAb08): -21.66 ± 0.61 kcal/mol
ΔScal (mAb08 [1]; PBS pH 7.4, sample mAb08): −37.3 cal.mol^−1K^−1
elimination half-life [2]: 6 to 8 h
inhibition of RR6 enriched fraction binding to BSA-SNC [5]: did not show any significant inhibition
IC50 (mAb08 [4]): 123 nM
IC50 (mAb08 [4]; listed as BE): ~123 nM

CCOC(=O)[C@@H]1C2CCC(C[C@@H]1OC(=O)c1ccccc1)N2C (stereo partly drawn) [Cocaethylene]
Kd (f-mAb08; [6]): 169 nM
Kd (f-mAb08; [7]): 47 nM
Kd (mAb08 [1]; PBS pH 7.4, sample mAb08): 34.4 nM
ΔGcal (mAb08 [1]; PBS pH 7.4, sample mAb08): -10.2 kcal/mol
ΔHobs (mAb08 [1]; PBS pH 7.4, sample mAb08): -21.16 ± 0.48 kcal/mol
ΔScal (mAb08 [1]; PBS pH 7.4, sample mAb08): −36.8 cal.mol^−1K^−1
